Data published in patent publication US7498348B2, “1 H-imidazole derivatives as cannabinoid receptor modulators” (Solvay Pharmaceuticals, Inc., priority 2003, dated 2009).
In brackets after ≈: the same amount, converted by molar mass. Like-named read-outs stand apart in the source and are kept apart here.

Legend:
[1] = Determination of aqueous solubility (precipitate formation after 100-fold dilution of DMSO stock solutions); type: physicochemical; conditions: kinetic from dmso stock
Experimental: Determination of Aqueous Solubility
The compounds are dissolved in DMSO to give 10 mg/ml stock solutions. These stock solutions are divided over several plates. Several diluted concentrations are made with DMSO to 5, 2.5, 1.25, 0.625 and 0.3125 mg/ml, respectively. The stock solution and each derived concentration from this stock solution is taken and diluted 100 fold with water or with water containing a buffer. In every case this gives an aqueous solution which contains 1% DMSO (v/v) and 100, 50, 25, 12.5 and 6.25 and 3.125 μg compound/ml, respectively. The formation of a precipitate is determined in each plate. The measurements were performed at pH=7, applying a HEPES buffer and at pH=2, applying hydrochloric acid. Aqueous solubility is expressed in μg/ml in the table below.
Aqueous solubilities of two of the compounds of general formula (I), the compounds 1 and 4, and the compound 1-(4-chlorophenyl)-2-(2,4-dichloro-phenyl)-N-cyclohexyl-1H-imidazole-4-carboxamide (compound 3 from WO 03/063781) were determined according to the procedure described above.

[2] = target: T1, human cannabinoid CB1 receptor (Homo sapiens, UniProt P21554); test: In vitro affinity for cannabinoid-CB1 receptors ([3H]CP-55,940 radioligand, CHO cell membrane preparations); type: binding; conditions: CHO cell membranes, stably transfected human CB1, [3H]CP-55,940; read-out: Human cannabinoid-CB1 receptor In vitro affinity - pKi value (converted)
T1 construct: expressed in transfected cells; host or cells: Chinese hamster ovary (CHO) cells, stably transfected; membrane preparations
Experimental: In Vitro Affinity for Cannabinoid-CB1 Receptors
The affinity of the compounds of the invention for cannabinoid CB1 receptors can be determined using membrane preparations of Chinese hamster ovary (CHO) cells in which the human cannabinoid CB1 receptor is stably transfected in conjunction with [^3H]CP-55,940 as radioligand. After incubation of a freshly prepared cell membrane preparation with the [^3H]-ligand, with or without addition of compounds of the invention, separation of bound and free ligand is performed by filtration over glassfiber filters. Radioactivity on the filter is measured by liquid scintillation counting.
Pharmacological test results of a subset of the compounds of the invention, obtained with the assay described above, are given in table 2 below: […]

T1 sequence (P21554 whole entry): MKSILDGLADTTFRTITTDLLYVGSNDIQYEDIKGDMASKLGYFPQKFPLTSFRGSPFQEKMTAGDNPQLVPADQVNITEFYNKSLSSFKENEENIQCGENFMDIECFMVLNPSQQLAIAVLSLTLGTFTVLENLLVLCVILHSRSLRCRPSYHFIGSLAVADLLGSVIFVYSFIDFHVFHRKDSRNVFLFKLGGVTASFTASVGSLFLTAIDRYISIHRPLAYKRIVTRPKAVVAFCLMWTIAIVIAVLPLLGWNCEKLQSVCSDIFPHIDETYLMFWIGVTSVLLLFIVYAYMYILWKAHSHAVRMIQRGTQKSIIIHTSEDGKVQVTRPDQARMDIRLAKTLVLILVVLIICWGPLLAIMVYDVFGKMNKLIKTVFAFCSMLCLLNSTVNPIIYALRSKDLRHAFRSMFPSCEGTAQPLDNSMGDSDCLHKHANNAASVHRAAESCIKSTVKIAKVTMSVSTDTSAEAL

For O=C(NC1CCCCC1)c1nc(-c2ccc(Cl)cc2Cl)n(-c2ccc(Cl)cc2)c1CN1CCCC1 [Compound 1, N-cyclohexyl-1-(4-chlorophenyl)-2-(2,4-dichlorophenyl)-5-(pyrrolidin-1-ylmethyl)-1H-imidazole-4-carboxamide], the solubility ([1]; pH 2, simulated gastric fluid) was over 100 µg/mL, the solubility ([1]; pH 7, aqueous buffer) was 50 µg/mL (≈ 94 µM) and the melting point was 155 to 157 °C. The Ki [2] was 7.94 nM.

Work on O=C(NC1CCCCC1)c1cn(-c2ccc(Cl)cc2)c(-c2ccc(Cl)cc2Cl)n1 [1-(4-chlorophenyl)-2-(2,4-dichloro-phenyl)-N-cyclohexyl-1H-imidazole-4-carboxamide, reference compound] yielded a solubility ([1]; pH 2, simulated gastric fluid) of 25 µg/mL (≈ 55.7 µM) and a solubility ([1]; pH 7, aqueous buffer) of 25 µg/mL (≈ 55.7 µM).

In the case of CCN(C)Cc1c(C(=O)NC2CCCCC2)nc(-c2ccc(Cl)cc2Cl)n1-c1ccc(Cl)cc1 [Compound 2, N-cyclohexyl-1-(4-chlorophenyl)-2-(2,4-dichlorophenyl)-5-(N-ethyl,N-methylaminomethyl)-1H-imidazole-4-carboxamide], the melting point is reported as 135 to 136 °C and the Ki [2] is reported as 6.31 nM.

With CN(C)Cc1c(C(=O)NN2CCCCC2)nc(-c2ccc(Cl)cc2Cl)n1-c1ccc(Cl)cc1 [Compound 3, N-(piperidin-1-yl)-1-(4-chlorophenyl)-2-(2,4-dichlorophenyl)-5-(N,N-dimethylaminomethyl)-1H-imidazole-4-carboxamide] the melting point was 163 to 166 °C and the Ki [2] was 100 nM.

Work on CN(C)Cc1c(C(=O)NC2CCCCC2)nc(-c2ccc(Cl)cc2Cl)n1-c1ccc(Cl)cc1 [Compound 4, N-cyclohexyl-1-(4-chlorophenyl)-2-(2,4-dichlorophenyl)-5-(N,N-dimethylaminomethyl)-1H-imidazole-4-carboxamide] yielded a solubility ([1]; aqueous buffer, pH = 7, HEPES buffer, 1% DMSO (v/v), read-out: Aqueous solubility in μg/ml at pH = 7) of 50 µg/mL (≈ 98.8 µM), a solubility ([1]; simulated gastric fluid, pH = 2, hydrochloric acid, 1% DMSO (v/v), read-out: Aqueous solubility in μg/ml at pH = 2) of over 100 µg/mL and a Ki [2] of 31.6 nM.

In the case of CCN(C)Cc1c(C(=O)NN2CCCCC2)nc(-c2ccc(Cl)cc2Cl)n1-c1ccc(Cl)cc1 [Compound 6, N-(piperidin-1-yl)-1-(4-chlorophenyl)-2-(2,4-dichlorophenyl)-5-(N-ethyl, N-methylaminomethyl)-1H-imidazole-4-carboxamide], the Ki [2] is reported as 126 nM.
